Laboratory results as given in patent US20240392249A1, “HUMAN HEPATOCYTE CULTURE MEDIUM AND CONDITIONED MEDIUM OF IN VITRO CULTURED HUMAN HEPATOCYTES AND USES THEREOF” (UNIVERSITY OF SOUTHERN CALIFORNIA, priority 2021, published 2024).

Experiments:
CYP2A9 = CYP2A9 (Homo sapiens, UniProt P11712); details: HH, in the presence of the organic compound
Procedure: (§1) Then, cells were used for the assessment of CYP3A4 (left), and CYP2A9 (middle) activity in the presence of organic compounds (DMSO or DMSO2) using P450-Glo™ Assays (Promega). For the assessment of CYP2E1 activity (right) was assessed using Vivid™ CYP2E1 Blue Screening Kit (Thermo Fisher). Graph bars represent mean±SD; *, ** and *** indicate p<0.05 and p<0.01 and p<0.001 by one-way ANOVA; n.s, not significant; n.d., not detected.

ADH = ADH activity (NADH production rate, absorbance at 340 nm) in HH cell homogenate; assay type: biochemical, human; details: in the presence of the organic compound
Procedure: Hepatoma cells (Huh7 and HepG2) were used as negative controls. (B) The relative ADH activity of HH were assessed in the absence of organic compounds (NT), as well as in the presence of DMSO or DMSO2 using the same method described in (A).

HH [1] = assay: Ethanol metabolism to acetate by cultured HH (Acetate Colorimetric Assay Kit); assay type: cell-based; details: 10 mM ethanol, 24 hours, sealing apparatus, compared with human liver
Procedure: Then, HH were cultured with either DMSO or DMSO2 containing maintenance/application medium in the absence (0 mM) or presence of 10 mM ethanol for 24 hours. The sealing apparatus was applied throughout the course of ethanol treatment. At the end of the ethanol treatment, cell culture medium was harvested followed by the measurement of acetate concentration using Acetate Colorimetric Assay Kit (Biovision). […] The rate of acetate production was normalized by the cell number of the […] in order to assess the comparability of EtOH metabolizing capacity of HH with each given condition to that of the health human liver (right).

HH [2] = assay: Withdrawal of DMSO from recovered HH: MRP2 immunofluorescence, immunoblotting, qPCR; assay type: cell-based, human; details: after 7 days recovery, additional 4 days
From the text: Then, HH were subjected to (A) immunofluorescent analysis for the detection of MRP2 (Arrowheads), (B) immunoblotting and (C) qPCR analysis for the detection of indicated hepatocytes marker molecules. The bar indicates 25 μm.

CYP3A4 [3] = biological target: T1, CYP3A4 (Homo sapiens, UniProt P08684); assay: CYP3A4 activity in cultured HH, P450-Glo Assays; assay type: in vitro ADME; details: in the presence of the organic compound
T1 construct: endogenous in cells; host or cells: freshly isolated human hepatocytes (HH) in culture
Procedure: as §1

HH [4] = assay: Role of DMSO in the cell fate recovery of freshly isolated HH; assay type: cell-based, human; details: 7 days
From the text: Then, HH were subjected to (A) immunofluorescent analysis for the detection of MRP2 (Arrowheads), (B) immunoblotting and (C) qPCR analysis for the detection of indicated hepatocytes marker molecules at the indicated time points.

CYP2E1 [5] = biological target: CYP2E1 (Homo sapiens, UniProt P05181); assay: CYP2E1 activity, Vivid CYP2E1 Blue Screening Kit; details: in the presence of the organic compound
Procedure: as §1
For the assessment of CYP2E1 activity (right) was assessed using VividTM CYP2E1 Blue Screening Kit (Thermo Fisher).

CYP3A4 [6] = assay: CYP3A4 expression and inducibility in HH (immunoblotting); assay type: cell-based, human; details: HH cultured with DMSO2, 7-day treatment
From the text: Then, and total RNA and cell lysates were subjected to immunoblotting analysis (left) and qPCR analysis (right) to determine the inducibility of indicated molecules. Graph bars represent mean±SD; *, ** and *** indicate p<0.05 and p<0.01 and p<0.001 by one-way ANOVA.

CYP2E1 [7] = assay type: cell-based; details: human, 7 days
Procedure: FIG. 9 show the impact of DMSO on the inducibility of CYP genes. Freshly isolated HHs were cultured for 7 days with HH recovery media (dHCGM) followed by the maintenance/application medium containing DMSO or DMSO2 for another 7 days in the presence of indicated concentration of CYP3A4 inducers ([…] and carbamazepine) (left) and CYP2El inducers (ethanol and isoniazid) (right). Then, and total RNA and cell lysates were subjected to immunoblotting analysis (left) and qPCR analysis (right) to determine the inducibility of indicated molecules.

HH [8] = assay: Screen of organic compounds as DMSO substitution: morphology and hepatocyte marker gene expression of recovered HH; assay type: cell-based, human; details: substitution for DMSO, additional 7 and 14 days culture
From the text: Then, total cell lysates were subjected to immunoblotting analysis for the detection of indicated molecules. NT; non treatment.
Then, HH was subjected to immunofluorescent analysis for the detection of MRP2 (Arrowheads), F-actin, DAPI. The bar indicates 25 μm.
In search of the DMSO substitution, we screened numerous organic compounds. The list of chemicals (Table 3) is selected based on the shared characteristics with DMSO, such as but not limited to the molecular size, solubility to the cell culture medium, stability at the standard temperature (melting and boiling temperatures), feasibility in handling (no significant chemical hazardous concern), and the cost. […] With the highest possible concentration, recovered HH (7 days old) were cultured for additional 7 and 14 days with refreshing of the medium at a frequency of every 3-4 days. On day 14 and 21, cells were subjected to the morphological and cell fate assessment along with the functional assessment (FIGS. 7 and 8).

HH [9] = details: HH cultured with DMSO2-containing medium, only when tight-sealing apparatus is applied
From the text: Due to the high volatility of ethanol, it evaporates rapidly at a much higher rate that the rate of hepatocytes metabolizes.

T1 sequence (P08684 whole entry): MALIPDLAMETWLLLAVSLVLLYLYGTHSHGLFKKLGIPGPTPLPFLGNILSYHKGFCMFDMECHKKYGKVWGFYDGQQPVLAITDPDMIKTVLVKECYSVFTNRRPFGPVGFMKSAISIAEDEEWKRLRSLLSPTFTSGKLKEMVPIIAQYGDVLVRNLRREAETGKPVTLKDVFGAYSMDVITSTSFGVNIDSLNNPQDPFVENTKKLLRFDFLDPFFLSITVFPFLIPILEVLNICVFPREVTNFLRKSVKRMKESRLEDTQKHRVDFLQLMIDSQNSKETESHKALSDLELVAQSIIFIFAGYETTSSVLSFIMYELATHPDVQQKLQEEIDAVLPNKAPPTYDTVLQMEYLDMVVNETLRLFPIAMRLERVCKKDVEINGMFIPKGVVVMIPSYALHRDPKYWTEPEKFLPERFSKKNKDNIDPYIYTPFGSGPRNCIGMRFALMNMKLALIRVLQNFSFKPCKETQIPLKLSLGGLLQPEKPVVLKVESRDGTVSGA
Sequence of CYP2E1 (Homo sapiens, UniProt P05181) (P05181 whole entry): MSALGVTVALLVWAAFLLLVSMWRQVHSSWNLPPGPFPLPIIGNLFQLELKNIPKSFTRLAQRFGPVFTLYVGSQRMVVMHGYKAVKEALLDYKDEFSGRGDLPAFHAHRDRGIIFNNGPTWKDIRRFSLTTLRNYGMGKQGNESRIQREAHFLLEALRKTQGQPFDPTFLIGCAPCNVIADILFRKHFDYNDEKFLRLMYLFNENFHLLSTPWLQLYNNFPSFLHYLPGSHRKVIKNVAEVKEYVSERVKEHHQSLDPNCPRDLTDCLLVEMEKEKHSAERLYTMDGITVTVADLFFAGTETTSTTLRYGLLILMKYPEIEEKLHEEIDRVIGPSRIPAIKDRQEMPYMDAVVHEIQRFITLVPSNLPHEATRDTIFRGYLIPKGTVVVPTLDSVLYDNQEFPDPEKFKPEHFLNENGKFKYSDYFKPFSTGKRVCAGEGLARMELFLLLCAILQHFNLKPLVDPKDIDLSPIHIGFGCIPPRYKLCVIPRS
Sequence of CYP2A9 (P11712 whole entry): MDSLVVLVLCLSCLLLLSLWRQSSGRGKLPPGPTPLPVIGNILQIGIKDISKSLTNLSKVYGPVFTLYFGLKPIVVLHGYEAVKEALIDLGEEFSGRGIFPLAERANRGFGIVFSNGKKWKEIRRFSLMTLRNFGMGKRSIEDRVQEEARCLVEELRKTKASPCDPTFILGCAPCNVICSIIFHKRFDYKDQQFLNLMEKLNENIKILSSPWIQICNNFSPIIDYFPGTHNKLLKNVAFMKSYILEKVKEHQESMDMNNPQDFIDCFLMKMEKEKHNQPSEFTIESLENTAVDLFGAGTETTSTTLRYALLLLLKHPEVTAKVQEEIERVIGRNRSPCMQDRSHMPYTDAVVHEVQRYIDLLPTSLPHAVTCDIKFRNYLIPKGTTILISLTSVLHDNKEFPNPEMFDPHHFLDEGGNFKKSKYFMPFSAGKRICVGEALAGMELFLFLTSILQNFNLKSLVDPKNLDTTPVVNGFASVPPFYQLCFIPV

SMILES: C[S+](C)[O-] [DMSO, dimethyl sulfoxide]
- effect on CYP2A9 activity (CYP2A9): inhibition of DMPK enzymes
- effect on ADH activity / ADH pathway (ADH): inhibition of ADH activity
- ethanol metabolism by HH (acetate production) (HH [1]): inhibition of ethanol metabolism to the production of acetate
- effect of withdrawal of DMSO on hepatocytic function and morphology (HH [2]): rapid deterioration of the hepatocytic function and morphology
- effect on metabolic activity of CYP3A4 (CYP3A4 [3]): potently prohibits
- recovery of HH from cell injury and stress when cultured without DMSO during Phase 1 (HH [4]): would not promote the recovery
- effect on metabolic activity of CYP2E1 / CYP2E1 pathway (CYP2E1 [5]): reciprocal changes were also seen in CYP2E1

SMILES: NC(=O)N1c2ccccc2C=Cc2ccccc21 [Carbamazepine]
- CYP3A4 induction by inducer (CYP3A4 [6]): CYP3A4 induction in a dose dependent manner

SMILES: NNC(=O)c1ccncc1 [Isoniazid]
- CYP2E1 induction by inducer (CYP2E1 [7]): lack of CYP2E1 induction

SMILES: [O-][S+]1CCCC1 [TMSO, Tetramethylene sulfoxide]
- effect on ADH activity / ADH pathway (ADH): inhibition of alcohol metabolism enzymes
- maintenance of morphology and marker genes expression of recovered HH (HH [8]): capable of maintaining the morphology and the marker genes expression at a level comparable to that of DMSO-containing medium

SMILES: CCO [Ethanol]
- CYP2E1 induction by inducer (CYP2E1 [7]): lack of CYP2E1 induction
- lipid droplet accumulation in HH (HH [9]): accumulation of lipid droplet (LD)

SMILES: CS(C)(=O)=O [DMSO2, dimethyl sulfone]
- maintenance of morphology and marker genes expression of recovered HH (HH [8]): capable of maintaining the morphology and the marker genes expression at a level comparable to that of DMSO-containing medium
- effect on metabolic activity of CYP3A4 (CYP3A4 [3]): substantially less than that of DMSO-containing medium
- effect on metabolic activity of CYP2E1 / CYP2E1 pathway (CYP2E1 [5]): substantially less than that of DMSO-containing medium
